Experiments:
MES-SA cells [1] = test: Percentage of live cells by fluorescent dye staining (Calcein-AM / EthD-1) and microscopy; assay type: cell-based, human
Procedure: (§1) In the present embodiment, cancer cell lines with (MES-SA/Dx5 cells; abbreviated as “Dx5” from the BCRC of Food Industry Research and Development Institute (FIRDI), Taiwan) and without (MES-SA cells from the BCRC of FIRDI) anti-cancer drug resistance were separately treated with various concentrations (0, 2.5, 5.0, 7.5, 10.0, 12.5, 15.0 μg ml^−1) of doxorubicin (doxorubicin hydrochloride; Enzo Life Sciences, CH) for 48 hours. The percentage of live cells was then evaluated by a combination of fluorescent dye staining and microscopic observation. Briefly, the drug-treated Dx5 cells were stained with the DiB cytoplasmic membrane labelling dye (Biotium, CA USA) and EthD-1 fluorescent dye (ethidium homodimer-1; Thermo Fisher Scientific, MA USA) to identify the living (blue staining), and dead (red staining) Dx5 cells, respectively. The drug-treated MES-SA cells were stained with Calcein-AM and EthD-1 fluorescent dyes (LIVE/DEAD1 Viability/Cytotoxicity Kit L-3224; Thermo Fisher Scientific, MA USA) to identify the living (green staining) and dead (red staining) cells, respectively. All the assays were performed according to the manufacturer's instructions. This was followed by microscopic observation using a fluorescence microscope (Zoom 160, OPTEM, USA). The overall viability of the cancer cells was then evaluated by determining the number of live cells relative to that of whole cells.

MES-SA/Dx5 cells [2] = test: Percentage of live cells by fluorescent dye staining (DiB / EthD-1) and microscopy; assay type: cell-based, human
Procedure: as §1

MES-SA cells [3] = test: MTT assay cell viability; assay type: cell-based, human; conditions: 48 hours
Procedure: (§2) Cell viability was also evaluated by assaying the intercellular dehydrogenase activity of cells using the commonly used MTT (thiazolyl blue tetrazolium bromide; Sigma Aldrich, MO USA) assay. Briefly, the cancer cells (i.e., MES-SA and Dx5 cells) were separately treated with doxorubicin as mentioned above. The drug-treated cancer cells were then assayed for viability (%) based on the manufacturer's instructions for the MTT assay kit.

MES-SA/Dx5 cells [4] = test: MTT assay cell viability; assay type: cell-based; conditions: Homo sapiens, 5.0 μg ml^−1 doxorubicin, 48 hours
Procedure: as §2

[5] = 5.0 μg ml^−1 doxorubicin for 48 hours
[6] = 5.0 μg ml^−1 doxorubicin, 48 hours

SMILES: COc1cccc2c1C(=O)c1c(O)c3c(c(O)c1C2=O)C[C@@](O)(C(=O)CO)C[C@@H]3O[C@H]1C[C@H](N)[C@H](O)[C@H](C)O1 [doxorubicin]
- dead cell percentage (MES-SA cells [1]; [5]): 73.9%
- percentage of live cells (MES-SA cells [1]; [6]): 26.1%
- dead cell percentage (MES-SA/Dx5 cells [2]; [5]): 4.5%
- percentage of live cells (MES-SA/Dx5 cells [2]; [6]): 95.5%
- viability at 5 µg/mL (MES-SA cells [3]; Homo sapiens, 5.0 μg ml^−1 doxorubicin): 2.2%
- cell viability (%) (MTT) (MES-SA cells [3]; various concentrations of doxorubicin): ~0%
- viability at 5 µg/mL (MES-SA/Dx5 cells [4]): 73.5%
